Results published in patent publication US8084481B2, “Substituted arylimidazolone and triazolone as inhibitors of vasopressin receptors” (Bayer Pharma Aktiengesellschaft, priority 2006, dated 2011).
Each block holds one molecule with its values, some of them ahead of it.

What was measured:
human V1a receptor = molecular target: T1, human V1a receptor (Homo sapiens, UniProt P37288); assay: Cellular in vitro test for determination of the vasopressin receptor activity (aequorin luminescence, CHO cells), human V1a; format: cell-based; details: cell line transfected with the human V1a receptor, antagonism of [Arg8]-vasopressin, read-out: IC50 hV1a
T1 construct: expressed in transfected cells; host or cells: CHO K1 (ATCC), constitutively expressing a modified aequorin
T1 sequence (P37288 whole entry): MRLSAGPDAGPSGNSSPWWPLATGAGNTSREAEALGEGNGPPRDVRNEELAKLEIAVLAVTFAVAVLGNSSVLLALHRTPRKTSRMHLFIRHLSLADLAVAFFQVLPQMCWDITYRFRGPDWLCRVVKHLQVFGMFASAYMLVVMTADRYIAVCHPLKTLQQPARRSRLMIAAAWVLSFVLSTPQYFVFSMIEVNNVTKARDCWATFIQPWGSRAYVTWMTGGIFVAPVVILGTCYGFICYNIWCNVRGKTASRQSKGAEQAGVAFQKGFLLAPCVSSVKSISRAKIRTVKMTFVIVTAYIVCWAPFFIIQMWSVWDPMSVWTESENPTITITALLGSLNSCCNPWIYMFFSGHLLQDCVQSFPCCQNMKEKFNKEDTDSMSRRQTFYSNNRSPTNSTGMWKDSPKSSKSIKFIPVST
Description: (§1) B-1. Cellular In Vitro Test for Determination of the Vasopressin Receptor Activity
(§2) The identification of agonists and antagonists of the V1a- and V2-vasopressin receptors in man and the rat and the quantification of the activity of the compounds according to the invention are effected by means of recombinant cell lines. These cells are originally derived from the ovarian epithelial cells of the hamster (Chinese Hamster Ovary, CHO K1, ATCC: American Type Culture Collection, Manassas, Va. 20108, USA). The test cell lines constitutively express a modified form of the calcium-sensitive photoprotein aequorin, which after reconstitution with the cofactor coelenterazine emits light on an increase in the free calcium concentrations [Rizzuto R, Simpson A W, Brini M, Pozzan T, Nature 358, 325-327 (1992)]. In addition, the cells are stably transfected with human or rat V1a- or V2 receptors. In the case of the Gs-coupled V2 receptors, the cells are stably transfected with a further gene which codes for the promiscuous Gα16-Protein [Amatruda T T, Steele D A, Slepak V Z, Simon M I, Proceedings of the National Academy of Science USA 88, 5587-5591 (1991)]. The resulting vasopressin receptor test cells react to stimulation of the recombinantly expressed vasopressin receptors with an intracellular release of calcium ions, which can be quantified by the resulting aequorin luminescence with a suitable luminometer [Milligan G, Marshall F, Rees S, Trends in Pharmacological Sciences 17, 235-237 (1996)].
(§3) On the day before the text, the cells are plated out in culture medium (DMEM, 10% FCS, 2 mM glutamine, 10 mM HEPES) in 384-well microtitre plates and kept in a cell incubator (96% atmospheric humidity, 5% v/v CO2, 37° C.). On the test day, the culture medium is replaced by a Tyrode solution (140 mM NaCl, 5 mM KCl, 1 mM MgCl2, 2 mM CaCl2, 20 mM glucose, 20 mM HEPES) which in addition contains the cofactor coelenterazine (50 μM), and the microtitre plate is then incubated for a further 3-4 hours. The test substances in various concentrations are placed beforehand in the wells of the microtitre plate for 10 to 20 minutes, before the agonist [Arg^8]-vasopressin is added and the resulting light signal immediately measured in the luminometer. The IC50 values are calculated by means of the computer program GraphPad PRISM (Version 3.02).

human V2 receptor = molecular target: T2, human V2 receptor (Homo sapiens, UniProt P30518); assay: Cellular in vitro test for determination of the vasopressin receptor activity (aequorin luminescence, CHO cells), human V2; format: cell-based; details: cell line transfected with the human V2 receptor, antagonism of [Arg8]-vasopressin, read-out: IC50 hV2
T2 construct: expressed in transfected cells; host or cells: CHO K1 (ATCC), constitutively expressing a modified aequorin and stably co-transfected with promiscuous G-alpha-16
T2 sequence (P30518 whole entry): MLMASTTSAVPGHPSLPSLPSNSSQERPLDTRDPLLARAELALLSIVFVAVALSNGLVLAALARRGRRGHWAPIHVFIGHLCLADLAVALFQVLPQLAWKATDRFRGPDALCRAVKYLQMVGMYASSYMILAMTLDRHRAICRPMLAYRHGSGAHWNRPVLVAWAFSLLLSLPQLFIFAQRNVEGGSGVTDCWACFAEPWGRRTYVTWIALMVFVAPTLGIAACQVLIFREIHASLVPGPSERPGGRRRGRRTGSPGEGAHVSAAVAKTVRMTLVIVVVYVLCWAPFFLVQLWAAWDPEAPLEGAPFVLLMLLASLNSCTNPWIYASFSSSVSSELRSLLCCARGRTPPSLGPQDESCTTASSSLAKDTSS
Description: as §1, §2, §3

Structure (SMILES): CCC(O)Cn1c(-c2ccc(Cl)cc2)nn(CC(=O)NC(C)(C)c2cccc(C(F)(F)F)c2)c1=O (single isomer, unassigned) [Example 485, 2-[3-(4-chlorophenyl)-5-oxo-4-(2-hydroxybutyl)-4,5-dihydro-1H-1,2,4-triazol-1-yl]-N-{1-methyl-1-[3-(trifluoromethyl)phenyl]ethyl}-acetamide]
IC50 (human V1a receptor): 12 nM
IC50 (human V2 receptor): 2 nM

Structure (SMILES): O=C(CCn1nc(-c2ccc(Cl)cc2)n(C2CC2)c1=O)NCc1cccc(C(F)(F)F)c1 [Example 25]
IC50 (human V1a receptor): 6300 nM
IC50 (human V2 receptor): 180 nM

Structure (SMILES): CC(NC(=O)Cn1nc(-c2ccc(Cl)cc2)n(C2CC2)c1=O)c1ccccc1C(F)(F)F (centres unmarked) [Example 28]
IC50 (human V1a receptor): 30 nM
IC50 (human V2 receptor): 180 nM

Structure (SMILES): CC(C)(NC(=O)Cn1nc(-c2ccc(Cl)cc2)n(C2CC2)c1=O)c1cccc(C(F)(F)F)c1 [Example 75, 2-[3-(4-chlorophenyl)-4-cyclopropyl-5-oxo-4,5-dihydro-1H-1,2,4-triazol-1-yl]-N-{1-methyl-1-[3-(trifluoromethyl)phenyl]ethyl}acetamide]
IC50 (human V1a receptor): 390 nM
IC50 (human V2 receptor): 26 nM

Structure (SMILES): CC(C)Cn1c(-c2ccc(Cl)s2)nn(CC(=O)NC(C)(C)c2cccc(C(F)(F)F)c2)c1=O [Example 84]
IC50 (human V1a receptor): 320 nM
IC50 (human V2 receptor): 8 nM

Structure (SMILES): CCn1c(-c2ccc(Cl)cc2)nn(CC(=O)NCc2ccccc2C(F)(F)F)c1=O [Example 101]
IC50 (human V1a receptor): 94 nM
IC50 (human V2 receptor): 1100 nM

Structure (SMILES): COc1ccc(Cn2c(-c3ccc(Cl)cc3)nn(CC(=O)NCc3cccc(C(F)(F)F)c3)c2=O)cc1 [Example 153, 2-[3-(4-chlorophenyl)-4-(4-methoxyphenylmethyl)-5-oxo-4,5-dihydro-1H-1,2,4-triazol-1-yl]-N-[3-(trifluoromethyl)phenylmethyl]acetamide]
IC50 (human V1a receptor): 42 nM
IC50 (human V2 receptor): 12 nM

Other lines, results leading:

IC50 (human V1a receptor): 338 nM
IC50 (human V2 receptor): 5 nM
Structure (SMILES): O=C(Cn1nc(-c2ccc(Cl)cc2)n(CC(O)C(F)(F)F)c1=O)N[C@@H]1C[C@@H]1c1cccc(C(F)(F)F)c1 (mixture of isomers) [Example 357, 2-[3-(4-chlorophenyl)-5-oxo-4-(3,3,3-trifluoro-2-hydroxypropyl)-4,5-dihydro-1H-1,2,4-triazol-1-yl]-N-{(1RS,2RS)-[2-(3-trifluoromethyl-phenyl)cyclopropyl]}-acetamide]

IC50 (human V1a receptor): 12 nM
IC50 (human V2 receptor): 2 nM
Structure (SMILES): CC(C)(NC(=O)Cn1nc(-c2ccc(Cl)cc2)n(CC(O)C(F)(F)F)c1=O)c1cccc(C(F)(F)F)c1 (single isomer, unassigned) [Example 451, 2-[3-(4-chlorophenyl)-5-oxo-4-(3,3,3-trifluoro-2-hydroxypropyl)-4,5-dihydro-1H-1,2,4-triazol-1-yl]-N-{1-methyl-1-[3-(trifluoromethyl)phenyl]ethyl}-acetamide]

IC50 (human V1a receptor): 12 nM
IC50 (human V2 receptor): 3 nM
Structure (SMILES): CC(C)(NC(=O)Cn1cc(-c2ccc(Cl)cc2)n(CC(O)C(F)(F)F)c1=O)c1cccc(C(F)(F)F)c1 (single isomer, unassigned) [Example 501, 2-[4-(4-chlorophenyl)-2-oxo-3-(3,3,3-trifluoro-2-hydroxypropyl)-2,3-dihydro-1H-imidazol-1-yl]-N-{1-methyl-1-[3-(trifluoromethyl)phenyl]ethyl}-acetamide]

IC50 (human V1a receptor): 170 nM
IC50 (human V2 receptor): 9 nM
Structure (SMILES): COc1ccc(Cn2c(-c3ccc(Cl)cc3)nn(CC(=O)NC(C)(C)c3cccc(C(F)(F)F)c3)c2=O)cc1 [Example 29]

IC50 (human V1a receptor): 1100 nM
IC50 (human V2 receptor): 9 nM
Structure (SMILES): O=C(Cn1nc(-c2ccc(Cl)cc2)n(CC2CCCCC2)c1=O)NCc1cccc(C(F)(F)F)c1 [Example 59]

IC50 (human V1a receptor): 38 nM
IC50 (human V2 receptor): > 10000 nM
Structure (SMILES): CC(C)Cn1c(-c2ccc(Cl)s2)nn(CC(=O)NCc2ccccc2C(F)(F)F)c1=O [Example 63]

IC50 (human V1a receptor): 960 nM
IC50 (human V2 receptor): 6 nM
Structure (SMILES): O=C(Cn1nc(-c2ccc(Cl)cc2)n(Cc2ccc(F)cc2)c1=O)NCc1cccc(C(F)(F)F)c1 [Example 143]

IC50 (human V1a receptor): 95 nM
IC50 (human V2 receptor): 7 nM
Structure (SMILES): O=C(Cn1nc(-c2ccc(Cl)cc2)n(Cc2ccccc2F)c1=O)NCc1cccc(C(F)(F)F)c1 [Example 145]

IC50 (human V1a receptor): 3400 nM
IC50 (human V2 receptor): 930 nM
Structure (SMILES): CC(C)Cn1c(-c2ccccc2-c2ccccc2)nn(CC(=O)NCc2cccc(C(F)(F)F)c2)c1=O [Example 151]
